In the NIST ThermoML archive (doi:10.1016/j.jct.2013.05.011):
Numbers after ± are expanded uncertainties.

Legend:
[1] = activity coefficient (dimensionless); of the first substance listed, at infinite dilution; xn = mol fraction of the nth substance listed; conditions: 101 kPa, Liquid, Chromatography, x1 = 0
[2] = refractive index (Na D-line) (dimensionless); conditions: 293.15 K; 101.33 kPa; Liquid; Standard Abbe refractometry
[3] = 288.15 K; 101.33 kPa; Liquid; Vibrating tube method

## C=CCCCCCC [oct-1-ene] + OCCOCCOCCO
[1]; 333.2 K
  activity coefficient: 55.9 ± 3.8
[1]; 348.2 K
  activity coefficient: 41.8 ± 2.9
[1]; 363.2 K
  activity coefficient: 36.8 ± 2.5

## CC(C)O [propan-2-ol] + OCCOCCOCCO
[1]; 333.2 K
  activity coefficient: 1.45 ± 0.1
[1]; 348.2 K
  activity coefficient: 1.4 ± 0.09
[1]; 363.2 K
  activity coefficient: 1.38 ± 0.09

## C#CCCCC [1-hexyne] + OCCOCCOCCO
[1]; 333.2 K
  activity coefficient: 7.01 ± 0.48
[1]; 348.2 K
  activity coefficient: 7.03 ± 0.48
[1]; 363.2 K
  activity coefficient: 6.69 ± 0.46

## C=CCCCCC [1-heptene] + OCCOCCO
[1]; 333.2 K
  activity coefficient: 72.3 ± 5
[1]; 348.2 K
  activity coefficient: 66.6 ± 4.6
[1]; 363.2 K
  activity coefficient: 60.5 ± 4.1

## CCCCCC [hexane] + OCCOCCO
[1]; 333.2 K
  activity coefficient: 95.7 ± 6.6
[1]; 348.2 K
  activity coefficient: 84 ± 5.8
[1]; 363.2 K
  activity coefficient: 82.4 ± 5.6

## C1CCCC1 [cyclopentane] + OCCOCCOCCO
[1]; 333.2 K
  activity coefficient: 15.2 ± 1
[1]; 348.2 K
  activity coefficient: 14 ± 0.95
[1]; 363.2 K
  activity coefficient: 12.7 ± 0.87

## C1CCCCC1 [cyclohexane] + OCCOCCO
[1]; 333.2 K
  activity coefficient: 42.7 ± 2.9
[1]; 348.2 K
  activity coefficient: 39.2 ± 2.7
[1]; 363.2 K
  activity coefficient: 34.9 ± 2.4

## CO [methanol] + OCCOCCO
[1]; 333.2 K
  activity coefficient: 0.988 ± 0.062
[1]; 348.2 K
  activity coefficient: 1.01 ± 0.06
[1]; 363.2 K
  activity coefficient: 1.02 ± 0.06

## C1CCCCCCC1 [cyclooctane] + OCCOCCO
[1]; 333.2 K
  activity coefficient: 70.7 ± 4.8
[1]; 348.2 K
  activity coefficient: 61.3 ± 4.2
[1]; 363.2 K
  activity coefficient: 52.2 ± 3.6

## C=CCCCCCC [oct-1-ene] + OCCOCCO
[1]; 333.2 K
  activity coefficient: 101 ± 6.9
[1]; 348.2 K
  activity coefficient: 93.5 ± 6.4
[1]; 363.2 K
  activity coefficient: 82.6 ± 5.7

## CCO [ethanol] + OCCOCCOCCO
[1]; 333.2 K
  activity coefficient: 1.18 ± 0.08
[1]; 348.2 K
  activity coefficient: 1.15 ± 0.07
[1]; 363.2 K
  activity coefficient: 1.12 ± 0.07

## C#CCCC [1-pentyne] + OCCOCCO
[1]; 333.2 K
  activity coefficient: 9.93 ± 1.2
[1]; 348.2 K
  activity coefficient: 10.5 ± 1.3
[1]; 363.2 K
  activity coefficient: 10.2 ± 1.3

## C#CCCCC [1-hexyne] + OCCOCCO
[1]; 333.2 K
  activity coefficient: 14.1 ± 0.96
[1]; 348.2 K
  activity coefficient: 14.6 ± 1
[1]; 363.2 K
  activity coefficient: 13.8 ± 0.94

## C#CCCCCC [1-heptyne] + OCCOCCO
[1]; 333.2 K
  activity coefficient: 20.3 ± 1.4
[1]; 348.2 K
  activity coefficient: 20.8 ± 1.4
[1]; 363.2 K
  activity coefficient: 19.3 ± 1.3

## CCCCCCC [heptane] + OCCOCCO
[1]; 333.2 K
  activity coefficient: 131 ± 9
[1]; 348.2 K
  activity coefficient: 122 ± 8.4
[1]; 363.2 K
  activity coefficient: 95.4 ± 6.5

## CO [methanol] + OCCOCCOCCO
[1]; 333.2 K
  activity coefficient: 0.788 ± 0.051
[1]; 348.2 K
  activity coefficient: 0.787 ± 0.051

## C#CCCCCCC [1-octyne] + OCCOCCOCCO
[1]; 333.2 K
  activity coefficient: 14.4 ± 0.98
[1]; 348.2 K
  activity coefficient: 12.8 ± 0.87
[1]; 363.2 K
  activity coefficient: 12.2 ± 0.83

## CCCCCC [hexane] + OCCOCCOCCO
[1]; 333.2 K
  activity coefficient: 45.8 ± 3.1
[1]; 348.2 K
  activity coefficient: 40.3 ± 2.8
[1]; 363.2 K
  activity coefficient: 35.1 ± 2.4

## CCCCCCCCC [nonane] + OCCOCCOCCO
[1]; 333.2 K
  activity coefficient: 137 ± 9.4
[1]; 348.2 K
  activity coefficient: 98.9 ± 6.8
[1]; 363.2 K
  activity coefficient: 83.1 ± 5.7

## Cc1ccccc1 [toluene] + OCCOCCOCCO
[1]; 333.2 K
  activity coefficient: 5.88 ± 0.4
[1]; 348.2 K
  activity coefficient: 5.73 ± 0.39
[1]; 363.2 K
  activity coefficient: 5.55 ± 0.38

## CCO [ethanol] + OCCOCCO
[1]; 333.2 K
  activity coefficient: 1.47 ± 0.1
[1]; 348.2 K
  activity coefficient: 1.46 ± 0.1
[1]; 363.2 K
  activity coefficient: 1.46 ± 0.1

## CCCO [propan-1-ol] + OCCOCCO
[1]; 333.2 K
  activity coefficient: 1.8 ± 0.12
[1]; 348.2 K
  activity coefficient: 1.77 ± 0.12
[1]; 363.2 K
  activity coefficient: 1.74 ± 0.12

## C=CCCCC [hex-1-ene] + OCCOCCO
[1]; 333.2 K
  activity coefficient: 50.7 ± 3.5
[1]; 348.2 K
  activity coefficient: 47.3 ± 3.2
[1]; 363.2 K
  activity coefficient: 38.9 ± 2.7

## CC(C)O [propan-2-ol] + OCCOCCO
[1]; 333.2 K
  activity coefficient: 1.79 ± 0.12
[1]; 348.2 K
  activity coefficient: 1.77 ± 0.12
[1]; 363.2 K
  activity coefficient: 1.74 ± 0.12

## CCCCCCC [heptane] + OCCOCCOCCO
[1]; 333.2 K
  activity coefficient: 62.3 ± 4.3
[1]; 348.2 K
  activity coefficient: 52.3 ± 3.6
[1]; 363.2 K
  activity coefficient: 43.7 ± 3

## Cc1ccccc1 [toluene] + OCCOCCO
[1]; 333.2 K
  activity coefficient: 11.2 ± 0.77
[1]; 348.2 K
  activity coefficient: 10.9 ± 0.75
[1]; 363.2 K
  activity coefficient: 10.5 ± 0.72

## c1ccccc1 [benzene] + OCCOCCO
[1]; 333.2 K
  activity coefficient: 7.33 ± 0.5
[1]; 348.2 K
  activity coefficient: 7.21 ± 0.49
[1]; 363.2 K
  activity coefficient: 7.05 ± 0.48

## CCCCCCCCC [nonane] + OCCOCCO
[1]; 333.2 K
  activity coefficient: 264 ± 18
[1]; 348.2 K
  activity coefficient: 230 ± 16
[1]; 363.2 K
  activity coefficient: 193 ± 13

## CCCCCCCC [octane] + OCCOCCO
[1]; 333.2 K
  activity coefficient: 188 ± 13
[1]; 348.2 K
  activity coefficient: 168 ± 12
[1]; 363.2 K
  activity coefficient: 146 ± 10

## CCc1ccccc1 [ethylbenzene] + OCCOCCOCCO
[1]; 333.2 K
  activity coefficient: 8.63 ± 0.59
[1]; 348.2 K
  activity coefficient: 8.21 ± 0.56
[1]; 363.2 K
  activity coefficient: 7.86 ± 0.54

## C=CCCC [1-pentene] + OCCOCCOCCO
[1]; 333.2 K
  activity coefficient: 17.5 ± 2.2
[1]; 348.2 K
  activity coefficient: 16.1 ± 2
[1]; 363.2 K
  activity coefficient: 14.8 ± 1.8

## C=CCCC [1-pentene] + OCCOCCO
[1]; 333.2 K
  activity coefficient: 35.3 ± 4.4
[1]; 348.2 K
  activity coefficient: 32.9 ± 4.1
[1]; 363.2 K
  activity coefficient: 27.6 ± 3.4

## C1CCCC1 [cyclopentane] + OCCOCCO
[1]; 333.2 K
  activity coefficient: 30.9 ± 2.1
[1]; 348.2 K
  activity coefficient: 27.6 ± 1.9
[1]; 363.2 K
  activity coefficient: 25.9 ± 1.8

## CCCCCCCC [octane] + OCCOCCOCCO
[1]; 333.2 K
  activity coefficient: 103 ± 7.1
[1]; 348.2 K
  activity coefficient: 74 ± 5.1
[1]; 363.2 K
  activity coefficient: 62.9 ± 4.3

## C#CCCCCC [1-heptyne] + OCCOCCOCCO
[1]; 333.2 K
  activity coefficient: 10.2 ± 0.7
[1]; 348.2 K
  activity coefficient: 9.04 ± 0.62
[1]; 363.2 K
  activity coefficient: 8.99 ± 0.61

## C1CCCCC1 [cyclohexane] + OCCOCCOCCO
[1]; 333.2 K
  activity coefficient: 21.1 ± 1.4
[1]; 348.2 K
  activity coefficient: 18.6 ± 1.3
[1]; 363.2 K
  activity coefficient: 16.8 ± 1.1

## C1CCCCCCC1 [cyclooctane] + OCCOCCOCCO
[1]; 333.2 K
  activity coefficient: 35.3 ± 2.4
[1]; 348.2 K
  activity coefficient: 27.2 ± 1.9
[1]; 363.2 K
  activity coefficient: 23.9 ± 1.6

## CCc1ccccc1 [ethylbenzene] + OCCOCCO
[1]; 333.2 K
  activity coefficient: 16.8 ± 1.1
[1]; 348.2 K
  activity coefficient: 16.1 ± 1.1
[1]; 363.2 K
  activity coefficient: 15.2 ± 1

## C#CCCC [1-pentyne] + OCCOCCOCCO
[1]; 333.2 K
  activity coefficient: 5.07 ± 0.63
[1]; 348.2 K
  activity coefficient: 5.11 ± 0.64
[1]; 363.2 K
  activity coefficient: 5.01 ± 0.62

## C1CCCCCC1 [cycloheptane] + OCCOCCOCCO
[1]; 333.2 K
  activity coefficient: 29.6 ± 2
[1]; 348.2 K
  activity coefficient: 22.3 ± 1.5
[1]; 363.2 K
  activity coefficient: 19.8 ± 1.4

## C1CCCCCC1 [cycloheptane] + OCCOCCO
[1]; 333.2 K
  activity coefficient: 52.4 ± 3.6
[1]; 348.2 K
  activity coefficient: 47.4 ± 3.2
[1]; 363.2 K
  activity coefficient: 42.1 ± 2.9

## C=CCCCC [hex-1-ene] + OCCOCCOCCO
[1]; 333.2 K
  activity coefficient: 24.6 ± 1.7
[1]; 348.2 K
  activity coefficient: 22.7 ± 1.6
[1]; 363.2 K
  activity coefficient: 20.4 ± 1.4

## CCCO [propan-1-ol] + OCCOCCOCCO
[1]; 333.2 K
  activity coefficient: 1.38 ± 0.09
[1]; 348.2 K
  activity coefficient: 1.34 ± 0.09
[1]; 363.2 K
  activity coefficient: 1.31 ± 0.09

## OCCOCCO [diethylene glycol]
[2]
  refractive index: 1.4471 ± 0.0004
[3]
  mass density: 1120.05 ± 0.28 kg/m3

## C#CCCCCCC [1-octyne] + OCCOCCO
[1]; 333.2 K
  activity coefficient: 29.9 ± 2
[1]; 348.2 K
  activity coefficient: 29.7 ± 2
[1]; 363.2 K
  activity coefficient: 27 ± 1.9

## c1ccccc1 [benzene] + OCCOCCOCCO
[1]; 333.2 K
  activity coefficient: 3.91 ± 0.27
[1]; 348.2 K
  activity coefficient: 3.86 ± 0.26
[1]; 363.2 K
  activity coefficient: 3.36 ± 0.23

## OCCOCCOCCO [triethylene glycol]
[2]
  refractive index: 1.4563 ± 0.0004
[3]
  mass density: 1127.37 ± 0.15 kg/m3

## CCCCC [pentane] + OCCOCCO
[1]; 333.2 K
  activity coefficient: 70.2 ± 8.7
[1]; 348.2 K
  activity coefficient: 53.8 ± 6.7
[1]; 363.2 K
  activity coefficient: 54.2 ± 6.7

## CCCCC [pentane] + OCCOCCOCCO
[1]; 333.2 K
  activity coefficient: 33.7 ± 4.2
[1]; 348.2 K
  activity coefficient: 30.8 ± 3.8
[1]; 363.2 K
  activity coefficient: 23.2 ± 2.9

## C=CCCCCC [1-heptene] + OCCOCCOCCO
[1]; 333.2 K
  activity coefficient: 34.4 ± 2.4
[1]; 348.2 K
  activity coefficient: 30.6 ± 2.1
[1]; 363.2 K
  activity coefficient: 27.5 ± 1.9
